In patent US8530490B2, “Uracil compound or salt thereof having human deoxyuridine triphosphatase inhibitory activity” (Taiho Pharmaceutical Co., Ltd., priority 2008, dated 2013):

Biological target: human dUTPase (Homo sapiens (Human), UniProt P33316)
Experiment: Human dUTPase inhibitory effect: production of [5-3H]dUMP from [5-3H]dUTP, measured by HPLC with flow scintillation
Assay type: biochemical
Conditions: [5-3H]dUMP production from [5-3H]dUTP, 37° C., 15 minutes
Experimental: The inhibitory activity of the compound of the present invention against human dUTPase was determined by measuring the production of [5-^3H]deoxyuridine monophosphate (hereinafter, referred to as [5-^3H]dUMP) from [5-^3H]deoxyuridine triphosphate (hereinafter, referred to as [5-^3H]dUTP) according to a method shown below.
Specifically, 0.2 mL in total of a solution containing 0.02 mL of 1 μM dUTP (including 588 Bq/mL [5-3H]dUTP), 0.05 mL of a 0.2 M Tris buffer solution (pH 7.4), 0.05 mL of 16 mM magnesium chloride, 0.02 mL of 20 mM 2-mercaptoethanol, 0.02 mL of a 1% aqueous solution of fetal bovine serum-derived albumin, 0.02 mL of varying concentrations of test compound solutions or pure water as a control, and 0.02 mL of a solution of human dUTPase (expressed using E. coli and purified) was reacted at 37° C. for 15 minutes. Immediately after the reaction, the solution was heated at 100° C. for 1 minute to terminate the reaction, followed by centrifugation at 15000 rpm for 2 minutes. An aliquot (150 μL) of the supernatant thus obtained by centrifugation was analyzed using an Atlantis dC18 column (manufactured by Waters Corp., 4.6×250 mm) and a high-performance liquid chromatograph (manufactured by Shimadzu Corp., Prominence). Elution was performed at a flow rate of 0.8 mL/min for 30 minutes by a concentration gradient from a 4:6 mixed solution of a mobile phase A (10 mM potassium dihydrogen phosphate (pH 6.7), 10 mM tetrabutylammonium, and 0.25% methanol) and a mobile phase B (50 mM potassium dihydrogen phosphate (pH 6.7), 5.6 mM tetrabutylammonium, and 30% methanol) to the mobile phase B. The eluate was mixed with a scintillator (manufactured by PerkinElmer Co., Ltd., Ultima-Flo AP) at a 1:2 ratio, and the radioactivity of the produced [5-^3H]dUMP (RT 10.2 min) was measured using Radiomatic Flow Scintillation Analyzer (manufactured by PerkinElmer Co., Ltd., 525TR).
The inhibitory activity of the test compound was determined according to the formula shown below.

Sequence of human dUTPase (P33316 94-252): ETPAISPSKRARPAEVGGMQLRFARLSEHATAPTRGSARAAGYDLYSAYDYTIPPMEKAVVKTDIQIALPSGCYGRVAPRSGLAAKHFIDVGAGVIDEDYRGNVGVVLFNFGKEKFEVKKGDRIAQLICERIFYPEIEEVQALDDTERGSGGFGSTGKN

Row | IC50 [nM] | SMILES
1 | 410 | C[C@@H](NS(=O)(=O)CCCOCn1ccc(=O)[nH]c1=O)c1cccc(OC(F)(F)C(F)(F)F)c1 [Example 55, (R)-3-((2,4-dioxo-3,4-dihydropyrimidin-1(2H)-yl)methoxy)-N-(1-(3-(perfluoroethoxy)phenyl)ethyl)propane-1-sulfonamide]
2 | 850 | C[C@@H](NS(=O)(=O)CCCOCn1ccc(=O)[nH]c1=O)c1cccc(OC(CF)CF)c1 [Example 56, (R)—N-(1-(3-(1,3-difluoropropan-2-yloxy)phenyl)ethyl)-3-((2,4-dioxo-3,4-dihydropyrimidin-1(2H)-yl)methoxy)propane-1-sulfonamide]
3 | 1180 | C#CCOc1cccc([C@@H](C)NS(=O)(=O)CCCOCn2ccc(=O)[nH]c2=O)c1 [Example 57, (R)-3-((2,4-dioxo-3,4-dihydropyrimidin-1(2H)-yl)methoxy)-N-(1-(3-(prop-2-ynyloxy)phenyl)ethyl)propane-1-sulfonamide]
4 | 490 | C[C@@H](NS(=O)(=O)CCCOCn1ccc(=O)[nH]c1=O)c1cccc(OCC2(C)CC2)c1 [Example 60, (R)-3-((2,4-dioxo-3,4-dihydropyrimidin-1(2H)-yl)methoxy)-N-(1-(3-((1-methylcyclopropyl)methoxy)phenyl)ethyl)propane-1-sulfonamide]
5 | 140 | C[C@@H](NS(=O)(=O)CCCOCn1ccc(=O)[nH]c1=O)c1cccc(OCC(F)F)c1 [Example 61, (R)—N-(1-(3-(2,2-difluoroethoxy)phenyl)ethyl)-3-((2,4-dioxo-3,4-dihydropyrimidin-1(2H)-yl)methoxy)propane-1-sulfonamide]
6 | 370 | C#C[C@H](C)Oc1cccc([C@@H](C)NS(=O)(=O)CCCOCn2ccc(=O)[nH]c2=O)c1 [Example 62, N—((R)-1-(3-((S)-but-3-yn-2-yloxy)phenyl)ethyl)-3-((2,4-dioxo-3,4-dihydropyrimidin-1(2H)-yl)methoxy)propane-1-sulfonamide]
7 | 470 | C#C[C@@H](C)Oc1cccc([C@@H](C)NS(=O)(=O)CCCOCn2ccc(=O)[nH]c2=O)c1 [Example 63, N—((R)-1-(3-((R)-but-3-yn-2-yloxy)phenyl)ethyl)-3-((2,4-dioxo-3,4-dihydropyrimidin-1(2H)-yl)methoxy)propane-1-sulfonamide]
8 | 1000 | C[C@@H](NS(=O)(=O)CCCOCn1ccc(=O)[nH]c1=O)c1cccc(OCC2CCCC2)c1 [Example 65, (R)—N-(1-(3-(cyclopentylmethoxy)phenyl)ethyl)-3-((2,4-dioxo-3,4-dihydropyrimidin-1(2H)-yl)methoxy)propane-1-sulfonamide]
9 | 460 | CC[C@@H](C)Oc1cccc([C@@H](C)NS(=O)(=O)CCCOCn2ccc(=O)[nH]c2=O)c1 [Example 66, N—((R)-1-(3-((R)-1-methylpropoxy)phenyl)ethyl)-3-((2,4-dioxo-3,4-dihydropyrimidin-1(2H)-yl)methoxy)propane-1-sulfonamide]
10 | 430 | CC[C@H](C)Oc1cccc([C@@H](C)NS(=O)(=O)CCCOCn2ccc(=O)[nH]c2=O)c1 [Example 67, N—((R)-1-(3-((s)-1-methylpropoxy)phenyl)ethyl)-3-((2,4-dioxo-3,4-dihydropyrimidin-1(2H)-yl)methoxy)propane-1-sulfonamide]
11 | 110 | C[C@@H](NS(=O)(=O)CCCOCn1ccc(=O)[nH]c1=O)c1ccc(F)c(OCC(F)F)c1 [Example 68, (R)—N-(1-(3-(2,2-difluoroethoxy)-4-fluorophenyl)ethyl)-3-((2,4-dioxo-3,4-dihydropyrimidin-1(2H)-yl)methoxy)propane-1-sulfonamide]
12 | 740 | C=CCOc1cccc([C@@H](C)NS(=O)(=O)CCCOCn2ccc(=O)[nH]c2=O)c1 [Example 69, (R)—N-(1-(3-(allyloxy)phenyl)ethyl)-3-((2,4-dioxo-3,4-dihydropyrimidin-1(2H)-yl)methoxy)propane-1-sulfonamide]
13 | 760 | CCC[C@H](C)Oc1cccc([C@@H](C)NS(=O)(=O)CCCOCn2ccc(=O)[nH]c2=O)c1 [Example 70, 3-((2,4-dioxo-3,4-dihydropyrimidin-1(2H)-yl)methoxy)-N—((R)-1-(3-((S)-pentan-2-yloxy)phenyl)ethyl)propane-1-sulfonamide]
14 | 930 | CCC[C@@H](C)Oc1cccc([C@@H](C)NS(=O)(=O)CCCOCn2ccc(=O)[nH]c2=O)c1 [Example 71, 3-((2,4-dioxo-3,4-dihydropyrimidin-1(2H)-yl)methoxy)-N—((R)-1-(3-((R)-pentan-2-yloxy)phenyl)ethyl)propane-1-sulfonamide]
15 | 660 | C[C@@H](NS(=O)(=O)CCCOCn1ccc(=O)[nH]c1=O)c1cccc(OCC(F)(F)C(F)(F)F)c1 [Example 72, (R)-3-((2,4-dioxo-3,4-dihydropyrimidin-1(2H)-yl)methoxy)-N-(1-(3-(2,2,3,3,3-pentafluoropropoxy)phenyl)ethyl)propane-1-sulfonamide]
16 | 510 | C[C@@H](NS(=O)(=O)CCCOCn1ccc(=O)[nH]c1=O)c1cccc(OCCC2CC2)c1 [Example 73, (R)—N-(1-(3-(2-cyclopropylethoxy)phenyl)ethyl)-3-((2,4-dioxo-3,4-dihydropyrimidin-1(2H)-yl)methoxy)propane-1-sulfonamide]
17 | 2100 | O=c1ccn(COCCCS(=O)(=O)NC(c2ccccc2)c2ccccc2)c(=O)[nH]1 [Example 76, N-benzhydryl-3-((2,4-dioxo-3,4-dihydropyrimidin-1(2H)-yl)methoxy)propane-1-sulfonamide]
18 | 5690 | Cc1ccccc1C(NS(=O)(=O)CCCOCn1ccc(=O)[nH]c1=O)c1ccccc1 (stereo not shown) [Example 77, 3-((2,4-dioxo-3,4-dihydropyrimidin-1(2H)-yl)methoxy)-N-(phenyl(o-tolyl)methyl)propane-1-sulfonamide]
19 | 2580 | O=c1ccn(COCCCS(=O)(=O)NC(c2ccc(F)cc2)c2ccc(F)cc2)c(=O)[nH]1 [Example 78, N-(bis(4-fluorophenyl)methyl)-3-((2,4-dioxo-3,4-dihydropyrimidin-1(2H)-yl)methoxy)propane-1-sulfonamide]
20 | 1650 | O=c1ccn(COCCCS(=O)(=O)N2CCC[C@@H]2C(c2ccccc2)c2ccccc2)c(=O)[nH]1 [Example 79, (R)-1-((3-(2-benzhydrylpyrrolidin-1-ylsulfonyl)propoxy)methyl)pyrimidine-2,4(1H, 3H)-dione]
21 | 1300 | CC(C)C[C@@H](NS(=O)(=O)CCCOCn1ccc(=O)[nH]c1=O)C(O)(c1ccccc1)c1ccccc1 [Example 80, (R)-3-((2,4-dioxo-3,4-dihydropyrimidin-1(2H)-yl)methoxy)-N-(1-hydroxy-4-methyl-1,1-diphenylpentan-2-yl)propane-1-sulfonamide]
22 | 9440 | O=c1ccn(COCCCS(=O)(=O)NC2(c3ccccc3)CCCC2)c(=O)[nH]1 [Example 81, 3-((2,4-dioxo-3,4-dihydropyrimidin-1(2H)-yl)methoxy)-N-(1-phenylcyclopentyl)propane-1-sulfonamide]
23 | 4780 | CC[C@@H](NS(=O)(=O)CCCOCn1ccc(=O)[nH]c1=O)c1ccccc1 [Example 83, (R)-3-((2,4-dioxo-3,4-dihydropyrimidin-1(2H)-yl)methoxy)-N-(1-phenylpropyl)propane-1-sulfonamide]
24 | 7130 | C[C@@H](NS(=O)(=O)CCCOCn1ccc(=O)[nH]c1=O)c1cccc(F)c1 [Example 87, (R)-3-((2,4-dioxo-3,4-dihydropyrimidin-1(2H)-yl)methoxy)-N-(1-(3-fluorophenyl)ethyl)propane-1-sulfonamide]
25 | 4630 | O=c1ccn(COCCCS(=O)(=O)NC(c2ccccc2)c2cccc(F)c2)c(=O)[nH]1 (stereo not shown) [Example 93, 3-((2,4-dioxo-3,4-dihydropyrimidin-1(2H)-yl)methoxy)-N-((3-fluorophenyl)(phenyl)methyl)propane-1-sulfonamide]
26 | 4620 | O=c1ccn(Cc2ccc(S(=O)(=O)NC(c3ccccc3)c3ccccc3)cc2)c(=O)[nH]1 [Example 96, N-benzhydryl-4-((2,4-dioxo-3,4-dihydropyrimidin-1(2H)-yl)methyl)benzenesulfonamide]

Row | SMILES | IC50 [nM]
27 | CC(C)COc1cccc([C@@H](C)NS(=O)(=O)CCCOCn2ccc(=O)[nH]c2=O)c1 [Example 58, (R)-3-((2,4-dioxo-3,4-dihydropyrimidin-1(2H)-yl)methoxy)-N-(1-(3-isobutoxyphenyl)ethyl)propane-1-sulfonamide] | 310
28 | CC[C@H](C)COc1cccc([C@@H](C)NS(=O)(=O)CCCOCn2ccc(=O)[nH]c2=O)c1 [Example 59, 3-((2,4-dioxo-3,4-dihydropyrimidin-1(2H)-yl)methoxy)-N—((R)-1-(3-((S)-2-methylbutoxy)phenyl)ethyl)propane-1-sulfonamide] | 720
